{"source": "patent US6011000A", "about": "“Compositions for the treatment of blood disorders” (priority 1995, dated 2000)", "key": {"[1]": {"system": "proximal promoter of the gamma globin gene (K562 cells)", "test": "Gamma globin promoter-neomycin transfection (61 bp proximal promoter), G418-resistant colonies", "assay_type": "cell-based, human", "protocol": "Gamma globin promoter-neomycin transfection experiments were performed to determine if compounds act by inducing an increase in activity from the proximal promoter of the gamma globin gene. Constructs containing 61 bp of the proximal gamma globin promoter were linked to the reporter gene for neomycin phosphotransferase (NEO) and transfected into permissive K562 cells by electroporation. After 18 hours, transfected cells were passed at 10^3 cells per well into RPMI media containing G418 (neomycin), which kills all mammalian cells unless the gene for NEO is expressed. Phenoxyacetic acid and thiophenoxyacetic acid were added to some of the cells plated into the RPMI/G418 media at concentrations of 1 mM. Cultures were incubated for 8 weeks with media changes performed as needed. Colonies which survived and grew in the presence of G418 were scored and the number of such colonies was compared to those generated when the cells were plated into G418 media without the test compounds. […] There was a greater than 6-fold (>600%) increase in proportions of colonies surviving the presence of phenoxyacetic acid (6/24 wells) and a three-fold (300%) increase in survival in the presence of thiophenoxyacetic acid (3/24 wells)."}, "human erythroid cells": {"system": "human erythroid cells", "test": "DNA fragmentation by flow cytometry (degradation of DNA)", "assay_type": "cell-based", "conditions": "for proportion of degraded DNA: 1.0 mM to 2.0 mM, untreated 26%; for Degraded DNA: 4 days, control 26%, 22%; for DNA fragmentation / cell viability / DNA integrity: DNA fragmentation assays", "protocol": "Such activities might limit their utility for treatment of anemias such as occur in thalassemia, but alternatively would be useful for anticancer effects. To determine cell viability, human erythroid cells were cultured in the presence and absence of these compounds for 4 days and the amount of DNA fragmentation which occurred was measured.\nFlow cytometric determination of DNA profiles and DNA fragmentation were determined. Cytometric analysis was performed with a FACScan (Becton Dickenson Instruments; Columbia, Md.). The data analysis and display were performed using the Cell-Fit software program. Approximately 0.5×10^6 cells were washed twice with PBS and resuspended in 1 ml of 1% sodium citrate, 0.1% Triton X-100 and 50 μg of propidium iodide/ml. Resulting permeabilized cells were kept in the dark at 4° C. overnight before DNA profile or DNA fragmentation analysis (Table 4)."}, "[2]": {"system": "γ-globin promoter fragment containing FRE-γ1", "test": "Gel mobility shift assay with FRE-γ1 promoter fragment", "set-up": "species or system human"}, "γ-globin gene promoter": {"system": "γ-globin gene promoter", "test": "In vivo footprinting of the γ-globin promoter", "set-up": "species or system human", "protocol": "To determine whether this increase was due to the transcriptional modulation of the γ-globin genes and, if so, to examine whether protein-DNA interactions of regulatory sequences for γ-globin gene expression have been changed, in vivo footprinting analysis of the γ-globin gene promoter and HSS-II region of the locus control region (LCR) were performed. […] Compared to conventional in vitro footprinting methods, which are ordinarily employed to analyze protein-DNA interactions for promoter regions and fail to disclose tissue-specific binding of nuclear proteins to cis-acting elements, in vivo footprinting technique is able to provide bona fide information on transcription factors binding to cis-acting elements that reflects in vivo situations.\nErythroid cell-rich fractions were prepared from patients' peripheral blood or bone marrow before and during treatment, and were in vivo methylated using DMS. Ligation-mediated polymerase chain reaction (LM-PCR) was performed (J. L. Mueller et al., Sci. 246:780-86, 1989). Briefly, 3-7 μg of DNA was suspended in 15 μl of solution A (40 mM Tris-HCl, pH 7.7, 50 mM NaCl) containing […] of primer. First-strand synthesis was performed by adding 7.5 μl of solution B (20 mM MgCl2, 20 mM DTT, 60 μM dNTP) and 1.5 μl of 1:4 diluted Sequenase version 2.0 (United States Biochemical; Cleveland, Ohio) with TE and incubating at 50° C. for 10 minutes. The reaction was quenched by heating at 68° C. for 10 minutes, adding 6 μl of 310 mM Tris-HCl, pH 7.7, and subsequently extracting with phenol/chloroform/isoamyl alcohol (25:24:1) and with ether. […] All of the footprints were analyzed two or more times to ensure reproducibility.\nIn the γ-globin gene promoter, a DNA fragment extending up to -200 bp relative to the transcription start site is sufficient to direct efficient transcription of the γ-globin genes (K. T. McDonagh et al., J. Biol. Chem. 266:11965-74, 1991; M. J. Urich Blood 75:990-99, 1990). […] Erythroblasts from a patient with sickle cell anemia, before and after butyrate treatment were analyzed. […]"}, "[3]": {"conditions": "Homo sapiens, K562, 1344 h, read-out: increase in proportions of colonies surviving"}, "[4]": {"conditions": "erythroblast nuclear extracts of thalassemic patients (FIG. 17)"}}}
{"smiles": "O=C(O)COc1ccccc1", "note": "[PAA, Phenoxyacetic acid]", "values": [{"measurement": "colonies surviving", "setting": "[1]; 1 mM, 8 weeks in G418, none of 24 wells without compound", "value": "6/24"}, {"measurement": "activation at 1000 µM", "setting": "[1]; [3]", "value": "> 600", "unit": "%"}, {"measurement": "fold induction at 1000 µM", "setting": "[1]; [3]", "value": "> 6"}, {"measurement": "proportion of degraded DNA", "setting": "human erythroid cells", "value": 20.6, "unit": "%"}, {"measurement": "Degraded DNA", "setting": "human erythroid cells; 2.0 mM", "value": 20.6, "unit": "%"}, {"measurement": "DNA fragmentation / cell viability / DNA integrity", "setting": "human erythroid cells", "value": "reduce DNA fragmentation"}]}
{"smiles": "CCCC(=O)O", "note": "[AB, arginine butyrate]", "values": [{"measurement": "Degraded DNA", "setting": "human erythroid cells; 0.5 mM", "value": 32, "unit": "%"}, {"measurement": "proportion of degraded DNA", "setting": "human erythroid cells", "value": 44, "unit": "%"}, {"measurement": "Degraded DNA", "setting": "human erythroid cells; 1.0 mM", "value": 34, "unit": "%"}, {"measurement": "Degraded DNA", "setting": "human erythroid cells; 2.0 mM", "value": 44, "unit": "%"}, {"measurement": "DNA fragmentation / cell viability / DNA integrity", "setting": "human erythroid cells", "value": "decrease cell viability"}, {"measurement": "new binding activity (activator)", "setting": "[2]; [4]", "value": "a new binding activity appeared"}, {"measurement": "other binding activity (repressor)", "setting": "[2]; [4]", "value": "disappeared"}, {"measurement": "activator and repressor bands in non-responder", "setting": "[2]; patient with sickle cell anemia who did not respond", "value": "no increase in the intensity of the activator band or loss of the repressor band"}, {"measurement": "footprints in the γ-globin promoter", "setting": "γ-globin gene promoter; erythroblasts of a sickle cell anemia patient, post-treatment (FIG. 13)", "value": "four major footprints in the fetal response elements"}, {"measurement": "induction of transcription factors interacting with the γ-globin gene promoter", "setting": "γ-globin gene promoter; sickle cell anemia patient", "value": "induces multiple transcription factors which interact with the γ-globin gene promoter, resulting in activation"}, {"measurement": "degree of protection on G residues in FRE-γ1", "setting": "γ-globin gene promoter; β-thalassemia and sickle cell anemia patients (FIG. 14)", "value": "consistently increased"}]}
